According to article PMC10578352, “Identification of a Protein Arginine Methyltransferase 7 (PRMT7)/Protein Arginine Methyltransferase 9 (PRMT9) Inhibitor” (Journal of Medicinal Chemistry, 2023):

Legend:
PRMT8 = molecular target: T1, PRMT8 (Homo sapiens, UniProt Q9NR22); test: HotSpot radioisotope-based filter assay, PRMT8; format: biochemical; conditions: 5 μM histone H4, 3H-SAM 1 μM
T1 construct: (residues 61–394, C-terminus); with C- and N-terminal His-tags; His (N); His (C); purchased Reaction Biology Corporation
T1 sequence (Q9NR22 61-394): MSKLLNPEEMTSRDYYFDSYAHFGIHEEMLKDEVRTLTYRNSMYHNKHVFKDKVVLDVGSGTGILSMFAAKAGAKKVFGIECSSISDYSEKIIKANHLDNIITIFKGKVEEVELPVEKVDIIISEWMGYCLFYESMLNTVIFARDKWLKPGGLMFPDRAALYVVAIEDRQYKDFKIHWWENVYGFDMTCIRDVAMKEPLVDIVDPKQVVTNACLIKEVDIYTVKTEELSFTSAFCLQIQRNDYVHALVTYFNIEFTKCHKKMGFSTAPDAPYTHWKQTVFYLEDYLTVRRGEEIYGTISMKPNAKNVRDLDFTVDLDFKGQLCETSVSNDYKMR
Description: (§1) Then, ^3H-SAM (final concentration of 1 μM) was delivered into the reaction mixture to initiate the reaction. After incubation for 60 min at 30 °C, the reaction mixture was delivered to filter-paper for detection (as assessed by scintillation). Data were analyzed using Excel and GraphPad Prism 6.0 software (GraphPad Software Inc., San Diego, CA) for IC50 curve fits using sigmoidal dose vs response - variable slope (four parameters) equations.

PRMT3 = molecular target: T2, PRMT3 (Homo sapiens, UniProt O60678); test: HotSpot radioisotope-based filter assay, PRMT3; format: biochemical; conditions: 5 μM histone H4, 3H-SAM 1 μM
T2 construct: PRMT3 (residues 2–531, C-terminus); with an N-terminal His-tag; His (N); purchased Reaction Biology Corporation
T2 sequence (O60678 2-531): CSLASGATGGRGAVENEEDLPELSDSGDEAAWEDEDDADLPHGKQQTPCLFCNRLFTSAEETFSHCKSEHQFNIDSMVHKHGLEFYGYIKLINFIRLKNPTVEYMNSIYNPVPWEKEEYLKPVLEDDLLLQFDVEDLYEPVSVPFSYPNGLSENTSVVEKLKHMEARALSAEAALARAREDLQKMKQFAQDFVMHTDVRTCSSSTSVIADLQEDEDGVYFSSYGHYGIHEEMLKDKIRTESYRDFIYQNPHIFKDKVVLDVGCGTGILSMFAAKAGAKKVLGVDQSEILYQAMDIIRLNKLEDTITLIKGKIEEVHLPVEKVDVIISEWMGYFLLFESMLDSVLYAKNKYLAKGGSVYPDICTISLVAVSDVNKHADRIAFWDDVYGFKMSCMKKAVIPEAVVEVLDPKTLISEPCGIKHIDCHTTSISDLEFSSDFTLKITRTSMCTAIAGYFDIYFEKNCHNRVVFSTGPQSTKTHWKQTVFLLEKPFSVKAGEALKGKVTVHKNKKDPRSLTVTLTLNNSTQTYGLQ
Description: as §1

PRMT1 = molecular target: T3, PRMT1 (Homo sapiens, UniProt Q99873); test: HotSpot radioisotope-based filter assay, PRMT1; format: biochemical; conditions: 5 μM histone H4, 3H-SAM 1 μM
T3 construct: PRMT1 (residues 2–371, C-terminus); with an N-terminal GST-tag; GST (N); purchased Reaction Biology Corporation
T3 sequence (Q99873 2-371): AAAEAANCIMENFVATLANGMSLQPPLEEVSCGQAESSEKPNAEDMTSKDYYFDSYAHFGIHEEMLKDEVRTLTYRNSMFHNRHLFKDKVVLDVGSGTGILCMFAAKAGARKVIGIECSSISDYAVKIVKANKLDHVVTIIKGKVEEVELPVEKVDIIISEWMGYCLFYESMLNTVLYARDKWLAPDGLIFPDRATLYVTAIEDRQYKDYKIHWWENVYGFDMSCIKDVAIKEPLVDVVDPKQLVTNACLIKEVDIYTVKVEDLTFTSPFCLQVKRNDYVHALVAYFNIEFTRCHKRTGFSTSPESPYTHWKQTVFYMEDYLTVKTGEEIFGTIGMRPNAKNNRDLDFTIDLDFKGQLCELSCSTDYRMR
Description: as §1

PRMT7 = molecular target: T4, PRMT7 (Homo sapiens, UniProt Q9NVM4); test: HotSpot radioisotope-based filter assay, PRMT7; format: biochemical; conditions: 5 μM GST-GAR, 3H-SAM 1 μM
T4 construct: PRMT7 (residues 2–692, C-terminus); with an N-terminal His-tag; His (N); purchased Reaction Biology Corporation
T4 sequence (Q9NVM4 2-692): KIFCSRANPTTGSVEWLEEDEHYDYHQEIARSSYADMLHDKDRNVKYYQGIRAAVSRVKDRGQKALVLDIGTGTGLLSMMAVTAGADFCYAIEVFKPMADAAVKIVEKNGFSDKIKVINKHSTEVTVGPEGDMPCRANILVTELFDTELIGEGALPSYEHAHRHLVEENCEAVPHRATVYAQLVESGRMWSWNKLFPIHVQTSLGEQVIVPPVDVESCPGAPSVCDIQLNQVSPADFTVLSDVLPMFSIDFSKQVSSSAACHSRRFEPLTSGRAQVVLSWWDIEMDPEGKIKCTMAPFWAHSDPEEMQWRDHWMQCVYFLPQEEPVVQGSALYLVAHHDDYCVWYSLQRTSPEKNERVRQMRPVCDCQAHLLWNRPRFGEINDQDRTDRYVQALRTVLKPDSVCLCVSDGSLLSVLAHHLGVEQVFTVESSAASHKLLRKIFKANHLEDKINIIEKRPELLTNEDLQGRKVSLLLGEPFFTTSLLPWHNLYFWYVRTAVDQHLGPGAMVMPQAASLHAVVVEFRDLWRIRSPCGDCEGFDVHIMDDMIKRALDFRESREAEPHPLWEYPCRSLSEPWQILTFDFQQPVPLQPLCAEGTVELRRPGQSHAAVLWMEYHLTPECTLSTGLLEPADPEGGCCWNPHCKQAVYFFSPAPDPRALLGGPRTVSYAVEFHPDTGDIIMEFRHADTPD
Description: as §1

PRMT5/MEP50 complex = molecular target: T5, PRMT5/MEP50 complex (Homo sapiens, UniProt O14744); test: HotSpot radioisotope-based filter assay, PRMT5; format: biochemical; conditions: 5 μM histone H2A, 3H-SAM 1 μM
T5 construct: residues PRMT5 2–637, C-terminus, and MEP50 2–342, C-terminus; FLAG (N); purchased Reaction Biology Corporation
T5 sequence (O14744 2-637): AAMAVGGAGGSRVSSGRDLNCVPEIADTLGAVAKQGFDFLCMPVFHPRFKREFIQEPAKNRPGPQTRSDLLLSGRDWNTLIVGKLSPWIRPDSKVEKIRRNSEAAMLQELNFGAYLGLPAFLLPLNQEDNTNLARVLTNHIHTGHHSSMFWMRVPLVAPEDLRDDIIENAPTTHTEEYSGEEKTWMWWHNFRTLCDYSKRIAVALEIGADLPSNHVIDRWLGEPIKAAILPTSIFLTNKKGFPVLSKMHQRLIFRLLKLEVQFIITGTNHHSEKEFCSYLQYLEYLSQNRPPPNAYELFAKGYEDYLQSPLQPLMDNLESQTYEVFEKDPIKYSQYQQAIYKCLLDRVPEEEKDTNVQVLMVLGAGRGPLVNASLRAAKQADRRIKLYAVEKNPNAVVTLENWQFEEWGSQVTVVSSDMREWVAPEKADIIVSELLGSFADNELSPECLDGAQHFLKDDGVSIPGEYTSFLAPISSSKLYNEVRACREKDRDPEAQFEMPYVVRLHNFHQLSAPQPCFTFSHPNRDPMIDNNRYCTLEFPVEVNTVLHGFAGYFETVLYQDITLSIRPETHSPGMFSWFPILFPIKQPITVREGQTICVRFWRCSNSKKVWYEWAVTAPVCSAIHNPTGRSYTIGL
T5 sequence (Q9BQA1 2-342 partner limits assumed): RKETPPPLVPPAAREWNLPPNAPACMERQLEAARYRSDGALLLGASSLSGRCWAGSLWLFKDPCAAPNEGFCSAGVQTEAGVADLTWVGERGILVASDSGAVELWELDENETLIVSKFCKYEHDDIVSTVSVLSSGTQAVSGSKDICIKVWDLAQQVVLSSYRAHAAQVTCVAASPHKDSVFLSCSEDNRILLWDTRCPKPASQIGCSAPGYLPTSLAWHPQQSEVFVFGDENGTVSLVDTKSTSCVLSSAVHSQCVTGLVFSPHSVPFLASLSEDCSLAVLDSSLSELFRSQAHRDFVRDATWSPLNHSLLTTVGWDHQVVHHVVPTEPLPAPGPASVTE
Description: as §1

PRMT6 = molecular target: T6, PRMT6 (Homo sapiens, UniProt Q96LA8); test: HotSpot radioisotope-based filter assay, PRMT6; format: biochemical; conditions: 5 μM GST-GAR, 3H-SAM 1 μM
T6 construct: PRMT6 (residues 2–375, C-terminus); with an N-terminal GST-tag; GST (N); purchased Reaction Biology Corporation
T6 sequence (Q96LA8 2-375): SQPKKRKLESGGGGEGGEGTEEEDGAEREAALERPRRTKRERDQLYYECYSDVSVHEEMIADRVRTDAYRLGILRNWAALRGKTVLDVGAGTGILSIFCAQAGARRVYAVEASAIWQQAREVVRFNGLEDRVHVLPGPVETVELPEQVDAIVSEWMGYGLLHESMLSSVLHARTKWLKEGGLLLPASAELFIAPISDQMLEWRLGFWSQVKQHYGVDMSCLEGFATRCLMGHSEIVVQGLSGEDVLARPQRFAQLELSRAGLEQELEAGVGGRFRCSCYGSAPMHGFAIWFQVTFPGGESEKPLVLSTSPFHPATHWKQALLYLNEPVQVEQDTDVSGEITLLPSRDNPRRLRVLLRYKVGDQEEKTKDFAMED
Description: as §1

human recombinant PRMT9 = molecular target: T7, human recombinant PRMT9 (Homo sapiens, UniProt Q6P2P2); test: AlphaLISA PRMT9 activity assay (modified BPS kit, biotinylated SF3B2 peptide); format: biochemical; conditions: for IC50: PRMT9 0.105 μM, biotinylated SF3B2 (500–519) peptide 100 nM, SAM 25 μM
T7 construct: human recombinant PRMT9 (2–845; N-terminal FLAG-tag, C-terminal His6-tag); FLAG (N); His6 (C); purchased BPS BioScience 79124
T7 sequence (Q6P2P2 2-845): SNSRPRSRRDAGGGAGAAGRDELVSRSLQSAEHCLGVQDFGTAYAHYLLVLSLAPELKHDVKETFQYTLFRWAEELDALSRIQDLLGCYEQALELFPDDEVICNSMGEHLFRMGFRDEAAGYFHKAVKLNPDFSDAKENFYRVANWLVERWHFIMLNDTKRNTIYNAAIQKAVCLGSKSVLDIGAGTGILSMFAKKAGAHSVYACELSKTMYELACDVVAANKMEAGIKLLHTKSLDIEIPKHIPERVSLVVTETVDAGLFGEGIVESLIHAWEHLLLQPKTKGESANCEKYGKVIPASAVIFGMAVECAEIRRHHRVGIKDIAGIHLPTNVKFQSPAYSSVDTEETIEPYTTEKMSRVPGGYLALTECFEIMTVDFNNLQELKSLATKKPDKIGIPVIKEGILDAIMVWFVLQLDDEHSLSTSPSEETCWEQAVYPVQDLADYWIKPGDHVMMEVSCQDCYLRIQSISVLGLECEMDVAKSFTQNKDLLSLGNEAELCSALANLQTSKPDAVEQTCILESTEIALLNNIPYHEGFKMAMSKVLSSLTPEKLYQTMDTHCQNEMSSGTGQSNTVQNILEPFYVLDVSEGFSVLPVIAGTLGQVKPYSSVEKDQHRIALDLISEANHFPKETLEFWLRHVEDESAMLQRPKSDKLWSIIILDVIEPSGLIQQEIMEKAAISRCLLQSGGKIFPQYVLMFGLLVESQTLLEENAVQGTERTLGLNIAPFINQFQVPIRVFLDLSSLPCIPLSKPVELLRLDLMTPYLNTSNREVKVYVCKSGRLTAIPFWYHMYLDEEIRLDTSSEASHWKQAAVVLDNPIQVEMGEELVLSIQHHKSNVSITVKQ
Description: Accordingly, all the enzymatic inhibition data were obtained by performing the assays in these optimized conditions.
The reaction was incubated for 60 min. Afterward, in each well, 5 μL of a 1:100 dilution of Primary antibody 28 (BPS BioScience, #52140Z3) in Detection buffer (BPS BioScience) and 5 μL of anti-Rabbit acceptor beads (PerkinElmer, #AL104C) were added to obtain a final concentration of 20 μg/mL.
For each incubation step, the OptiPlate was sealed with a protective foil to prevent evaporation and contamination. Donor and Acceptor beads were added to the mixture in subdued light.
The 100% activity (positive control) was reached using vehicle (DMSO), while 0% activity (negative control) was obtained without the protein. Data were analyzed by using Excel and Prism software. Values obtained for each compound are mean ± SD determined for three separate experiments.

PRMT4 = molecular target: T8, PRMT4 (Homo sapiens, UniProt Q86X55); test: HotSpot radioisotope-based filter assay, PRMT4; format: biochemical; conditions: 5 μM histone H3, 3H-SAM 1 μM
T8 construct: PRMT4 (residues 2–608, C-terminus); with an N-terminal GST-tag; GST (N); purchased Reaction Biology Corporation
T8 sequence (Q86X55 2-608): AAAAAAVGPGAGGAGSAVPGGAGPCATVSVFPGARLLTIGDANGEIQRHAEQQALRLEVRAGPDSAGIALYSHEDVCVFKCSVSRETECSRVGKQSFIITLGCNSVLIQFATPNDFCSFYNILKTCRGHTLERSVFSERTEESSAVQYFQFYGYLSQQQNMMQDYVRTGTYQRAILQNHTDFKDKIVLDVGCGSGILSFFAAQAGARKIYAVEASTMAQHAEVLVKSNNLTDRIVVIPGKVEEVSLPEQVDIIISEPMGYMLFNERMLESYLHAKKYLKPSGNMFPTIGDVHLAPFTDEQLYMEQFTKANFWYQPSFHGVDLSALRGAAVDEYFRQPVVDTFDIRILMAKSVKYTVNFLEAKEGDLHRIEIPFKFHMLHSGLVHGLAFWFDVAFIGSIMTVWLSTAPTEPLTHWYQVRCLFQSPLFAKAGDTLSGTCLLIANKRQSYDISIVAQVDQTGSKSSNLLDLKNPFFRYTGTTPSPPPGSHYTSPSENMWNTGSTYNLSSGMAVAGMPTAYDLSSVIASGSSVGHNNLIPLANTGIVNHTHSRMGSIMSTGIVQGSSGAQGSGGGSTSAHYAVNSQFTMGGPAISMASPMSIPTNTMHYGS
Description: as §1

[1] = design: method as in PMID 35482954; conditions: cited from earlier work
MCF-7 cells = tested on: MCF-7 cells; design: method as in PMID 35482954; conditions: cited from earlier work
[2] = tested on: PRMT4-catalyzed arginine methylation in MCF-7 cells; design: method as in PMID 35482954; conditions: cited from earlier work

SMILES | IC50 (PRMT8) | IC50 (PRMT3) | IC50 (PRMT1) | IC50 (PRMT7) | IC50 (PRMT5/MEP50 complex) | IC50 (PRMT6) | reduction in potency against PRMT9 compared to 1a (human recombinant PRMT9; AlphaLISA IC50 values) | IC50 (human recombinant PRMT9) | IC50 (PRMT4) | cell permeability [1] | proliferation (MCF-7 cells) | PRMT4-catalyzed arginine methylation levels [2]
COC(=O)c1cc(O)c2cc(NC(=O)NCCNC(=N)NC[C@H]3O[C@@H](n4cnc5c(N)ncnc54)[C@H](O)[C@@H]3O)ccc2c1 [1i, Methyl 6-(3-(2-(3-(((2R,3S,4R,5R)-5-(6-Amino-9H-purin-9-yl)-3,4-dihydroxytetrahydrofuran-2-yl)methyl)guanidino)ethyl)ureido)-4-hydroxy-2-naphthoate] | 42 µM | > 100 µM | > 100 µM | 0.54 µM | 9.4 µM | 70 µM | 3 fold | 2.47 µM | 22.8 µM | – | – | –
COC(=O)c1cc(O)c2cc(NC(=O)NCCCCNC(=N)NC/C=C/[C@H]3O[C@@H](n4cnc5c(N)ncnc54)[C@H](O)[C@@H]3O)ccc2c1 [1h] | – | – | – | – | – | – | – | 9.3 µM | – | low | marked reduction | evident reduction
